Results reported in the NIST ThermoML archive (doi:10.1016/j.jct.2013.03.027).
± gives the expanded uncertainty stated by the source.

Key:
[1] = Crystal; visual observation
[2] = xn = mol fraction of the nth substance listed; conditions: 101 kPa, Liquid, Archimedean displacement method, x1 = 0.5

`[Ag][I]` [silver iodide] gave a Normal melting temperature [1] of 559 ± 1 °C.

Work on `[Ag][I]` [silver iodide] + [Cl-].[Na+] yielded a mass density ([2]; 1065 K) of 3670 ± 37 kg/m3, a mass density ([2]; 1069 K) of 3669 ± 37 kg/m3 and a mass density ([2]; 1072 K) of 3664 ± 37 kg/m3. The mass density ([2]; 1073 K) was 3663 ± 37 kg/m3, the mass density ([2]; 1074 K) was 3660 ± 37 kg/m3 and the mass density ([2]; 1078 K) was 3657 ± 37 kg/m3. It also gave a mass density ([2]; 1084 K) of 3652 ± 37 kg/m3.

Compound `[Cl-].[Na+]` [sodium chloride] has a Normal melting temperature [1] of 801 ± 1 °C.
